PubChem BioAssay AID434951 (Broad Institute, 2010)
The source made the active and inactive calls.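 How the source made its calls: active means a fitted half-maximal concentration EC50 for the rise in nuclear signal no higher than ten times the top dose tested; inconclusive means flat fit with activity between 30% and 70%, or unusable fit; inactive means EC50 beyond ten times the top dose.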

What follows are compounds tested against Hypoxia-inducible factor 1-alpha (Homo sapiens) (UniProt Q16665) (assay: HIF pathway activation, GFP-HIF1alpha translocation – imaging, fluorescence, U2OS GFP-HIF1alpha, confirmation (AID 434951)). Conditions: U2OS GFP-HIF1alpha nuclear intensity, high-content imaging.
Sequence of Hypoxia-inducible factor 1-alpha (Homo sapiens) (Q16665 whole entry, looked up): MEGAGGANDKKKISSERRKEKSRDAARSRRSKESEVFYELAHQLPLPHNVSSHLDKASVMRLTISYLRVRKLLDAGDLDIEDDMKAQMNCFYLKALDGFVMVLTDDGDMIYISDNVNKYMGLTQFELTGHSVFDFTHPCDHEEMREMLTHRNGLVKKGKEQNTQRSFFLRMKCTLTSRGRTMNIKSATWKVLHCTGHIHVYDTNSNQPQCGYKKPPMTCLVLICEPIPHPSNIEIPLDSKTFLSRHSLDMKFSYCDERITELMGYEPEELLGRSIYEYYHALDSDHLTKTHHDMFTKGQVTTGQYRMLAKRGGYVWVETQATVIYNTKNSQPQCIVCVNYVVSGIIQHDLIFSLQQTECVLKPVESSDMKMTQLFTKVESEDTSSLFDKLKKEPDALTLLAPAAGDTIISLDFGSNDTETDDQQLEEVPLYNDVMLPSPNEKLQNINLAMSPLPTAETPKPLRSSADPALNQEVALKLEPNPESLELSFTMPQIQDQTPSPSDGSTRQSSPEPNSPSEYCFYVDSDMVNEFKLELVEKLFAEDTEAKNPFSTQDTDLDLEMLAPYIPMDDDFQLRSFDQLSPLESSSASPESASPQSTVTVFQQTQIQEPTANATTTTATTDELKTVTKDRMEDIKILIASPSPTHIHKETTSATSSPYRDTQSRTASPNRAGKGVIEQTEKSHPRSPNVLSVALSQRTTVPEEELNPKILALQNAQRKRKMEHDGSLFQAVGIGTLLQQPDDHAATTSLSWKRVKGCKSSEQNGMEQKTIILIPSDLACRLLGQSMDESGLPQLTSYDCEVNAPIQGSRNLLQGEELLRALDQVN

Structure (SMILES) | EC50
CN(CC(=O)Nc1ccc(S(=O)(=O)N2CCCC2)cc1)CC(=O)Nc1cccc(F)c1 | > 35 µM (inactive)
CCOC(=O)c1ccc(S(=O)(=O)NNC(=O)COc2ccccc2C)cc1 | > 35 µM (inactive)
CCOC(=O)c1c(NC(=O)CN2C(=O)NC3(CCC(C)CC3)C2=O)sc(C)c1-c1ccc(C)cc1 (stereo unspecified) | 7.59 µM
CC(=O)Nc1c([N+](=O)[O-])cc(C)c(Cl)c1[N+](=O)[O-] | > 35 µM (inactive)
O=C(O)c1ccc2cc(-c3ccccc3)[nH]c2c1 | > 35 µM (inactive)
C=CCc1c(C)nc2c(-c3ccccc3)cnn2c1N1CCOCC1 | > 35 µM (inactive)
Cc1ccc(C)c(-c2cc(C(=O)Nc3cccc(C(=O)O)c3)c3ccccc3n2)c1 | > 35 µM (inactive)
O=C(CCN1C(=O)S/C(=C\c2ccc(F)cc2)C1=O)Nc1ccc(C(=O)O)c(O)c1 | > 35 µM (inactive)
O=C(c1ccc(Cl)cc1Cl)N1CCN(c2ccc(N3CCOCC3)nn2)CC1 | > 35 µM (inactive)
Cc1cc(Cl)n2c(nc3cc(F)c(F)cc32)c1C#N | > 35 µM (inactive)
Cc1ccc2c(c1)cc(C(=O)NCc1ccccc1)n2C | > 35 µM (inactive)
O=C(CSc1nnc(-c2ccco2)n1Cc1ccco1)NCc1ccccc1 | > 35 µM (inactive)
O=C(Nc1ccccc1)N(C1=NCCCCS1)c1cccc2ccccc12 | > 35 µM (inactive)
CCn1c(C)nc2cc(C(=O)N/N=C/c3cccc(O)c3O)ccc21 | 24.6 µM
Cc1sc(NC(=O)c2ccco2)c(CN2CCC(C)CC2)c1C | > 35 µM (inactive)
CC[C@@]1(O)C(=O)OCc2c1cc1n(c2=O)Cc2cc3c(N)cccc3nc2-1 | > 35 µM (inactive)
COCCn1c(=NC(=O)c2ccc(S(=O)(=O)N3CCCc4ccccc43)cc2)sc2cc(S(C)(=O)=O)ccc21 | > 35 µM (inactive)
Cc1ccc(NC(=O)N2CCC(NC(=O)c3cccc(C)c3)CC2)cc1 | > 35 µM (inactive)
O=C(NCc1nc2ccccc2[nH]1)c1c(F)c(F)c(F)c(F)c1F | > 35 µM (inactive)
Cc1sc2ncnc(Sc3nnnn3-c3ccc(Cl)cc3)c2c1C | > 35 µM (inactive)
COc1ccc(CC(=O)N2CCN(C(=O)Cc3ccc(OC)cc3)CC2)cc1 | > 35 µM (inactive)
Cc1ccc(-c2nc3ccccc3nc2NN)cc1 | > 35 µM (inactive)
COc1ccc(/C=C/C(=O)NCCSCc2ccco2)cc1OC | > 35 µM (inactive)
CC(C)(C)c1cc(C(=O)N2CCN(c3ncccn3)CC2)ccn1 | > 35 µM (inactive)
O=C(N/N=C/C(Br)=C\c1ccccc1)c1n[nH]c2c1CCC2 | 7.85 µM
Oc1ccc(/C=N/NC(=S)NC2CC3CCC2C3)cc1 (stereo unspecified) | > 35 µM (inactive)

Structure (SMILES) | EC50
CC(=O)N(O)CCCCCNC(=O)CCC(=O)N(O)CCCCCNC(=O)CCC(=O)N(O)CCCCCN | 5.56 µM
Cc1ccc(-c2nc(CS(=O)(=O)CC(=O)NC3CCC(C)CC3)c(C)o2)cc1 (stereo unspecified) | > 35 µM (inactive)
COc1ccc(OC)c2[nH]c(C(=O)N/N=C/c3ccccc3O)cc12 | 6.61 µM
COc1ccccc1-c1cc(C(F)(F)F)nc(S(=O)(=O)CCCC(=O)NC(C)C)n1 | > 35 µM (inactive)
O=C(Cc1ccc(S(=O)(=O)N2CCOCC2)s1)Nc1ccc(S(=O)(=O)N2CCCCC2)cc1 | > 35 µM (inactive)
CCCN(CCC)C(=S)Nc1cc(C(=O)OC)ccc1C(=O)OC | > 35 µM (inactive)
CCn1c(SCC(=O)c2cc(C)ccc2C)nc2cc(S(=O)(=O)N3CCOCC3)ccc21 | > 35 µM (inactive)
CN(/N=C/c1c[nH]c2ccccc12)c1cnn(-c2ccc(F)c(Cl)c2)c(=O)c1Cl | > 35 µM (inactive)
OCCNc1c2ccccc2nc2ccccc12 | 32.4 µM
O=C(O)c1ccccc1OCCOc1ccccc1C(=O)O | > 35 µM (inactive)
CC(=O)NC(c1ccc(C(C)C)cc1)c1ccc2cccnc2c1O (stereo unspecified) | 1.33 µM
O=C(NC(CSCc1ccccc1)C(=O)N/N=C/c1ccc(O)cc1O)c1ccc([N+](=O)[O-])cc1 (stereo unspecified) | 2.51 µM
CCCCCCCC1CC(=O)C=C(C)C1C(=O)OCC (stereo unspecified) | > 35 µM (inactive)
Cc1onc(-c2c(Cl)cccc2Cl)c1C(=O)N=C(N)N1CCCC1 | > 35 µM (inactive)
COc1cc(C(=O)Nc2sc(C)c(C)c2C(=O)O)cc(OC)c1OC | > 35 µM (inactive)
Cc1ccc(CN2[C@@H](CC(C)C)COCCS2(=O)=O)cc1 | > 35 µM (inactive)
O=C(N/N=C/c1cc(Br)ccc1OC(=O)c1ccc(Br)cc1)c1ccncc1 | > 35 µM (inactive)
Oc1c(CN2CCOCC2)cc(COCc2ccccc2)c2cccnc12 | 6.71 µM
Cc1nnc(-c2ccccc2)c(=O)n1/N=C/c1c(O)ccc2ccccc12 | 8.4 µM
C/C(=N\NC(=O)c1cc(-c2cccnc2)nc2ccccc12)c1ccccc1O | 21.9 µM
O=C(COc1ccc(Cl)cc1Cl)N/N=C/CCc1ccccc1 | > 35 µM (inactive)
COCCNC(=O)c1sc2nc(-c3ccccc3)cn2c1C | > 35 µM (inactive)
C=CCNC(=S)N/N=C(\C)c1ccccn1 | 6.53 µM
Cn1cccc1C(=O)NC(=O)COC(=O)c1cc(S(=O)(=O)N2CCCCC2)ccc1Cl | > 35 µM (inactive)
COc1ccc(CN(C)CC(=O)Nc2ccc(SC(F)F)cc2)cc1OC | > 35 µM (inactive)
